Laboratory results: US9820997B2, “Pharmaceutical composition for treating disease associated with demyelination of neurons and method of using the pharmaceutical composition” (Samsung Electronics Co., Ltd., priority 2014, dated 2017)

Tests used:
PMP22 = PMP22 protein amount in PMP22-overexpressing SH-SY5Y cells by Western blot; format: cell-based, human; settings: for amount of the PMP22 protein compared to negative control and positive control (AA): FIGS. 5A/5B
Method: (§1) SH-SY5Y cells were inoculated at a concentration of 10^5 cells/ml in each well of a 12-well plate including 2 ml of a DMEM medium containing 10% FBS, 100 units/ml of penicillin, and 100 units/ml of streptomycin and incubated until the cell density was about 60% to about 65% in a 5% CO2 incubator at 37°. Then, dapsone (4,4′-diaminodiphenylsulfone, DDS) (available from Sigma), MADDS (available from Sigma), SSZ (available from Sigma), and SCM (available from Sigma) were respectively added to the wells at various concentrations and incubated for 24 hours under the same conditions. Vitamin C (ascorbic acid, AA) (available from Sigma) was used as the positive control group. Vitamin C is known as having an effect of treating peripheral neuropathy by using a cAMP modulator. SH-SY5Y cells are a human-derived cell line used in scientific research. The original cell line, SK-N-SH from which SH-SY5Y cells were subcloned, was isolated from a bone marrow biopsy taken from a person with neuroblastoma. SH-SY5Y cells are often used as in vitro models of neuronal function and differentiation. The SH-SY5Y cells used herein have been modified to consistently overexpress the human PMP22 gene by lentiviral mediated integration of PMP22 into a chromosome.
After removing 2 ml of the culture medium, the SH-SY5Y cells were washed with phosphate buffered saline (PBS), and a lysis solution, 0.5% Triton X-100, in PBS was added thereto. Then, cells were collected using a scraper, left in ice for 30 minutes, and then, the cells were disrupted. Using a bicinchoninic acid (BCA) protein assay, the amount of protein in each sample was normalized to 1 ug/ul. SDS-PAGE (Invitrogen) was performed on the sample, and then Western blotting was performed with rabbit anti-PMP22 (Novus biological) and rabbit anti-actin (Sigma) primary antibodies, and an anti-rabbit secondary antibody.

Zebrafish (Danio rerio) = assay: Remyelination in MTZ-demyelinated genetically engineered zebrafish, confocal fluorescence; format: in vivo; settings: demyelinated central and peripheral nervous system; 10 uM
PMP22 mRNA = PMP22 mRNA expression in SH-SY5Y cells by RT-PCR; format: cell-based, human; settings: according to DDS concentration; FIG. 2
Method: as §1, with “SH-SY5Y cells are often used as in vitro models of neuronal function and differentiation. The SH-SY5Y cells used herein have been modified to consistently overexpress the human PMP22 gene by lentiviral mediated integration of PMP22 into a chromosome.” left out
Also, RNA from treated and untreated SH-SY5Y cells was extracted by with Trizol (Invitrogen). PM22 gene expression was analyzed by using a one-step RT-PCR kit (Qiagen), whereby the extracted RNA was mixed with a PMP22 gene specific primer set of SEQ ID NOS: 1 and 2, and a real time-PCR (RT-PCR) was performed to confirm the degree of mRNA expression.

[1] = system: Tr-J mice (CMT mouse model); assay: Rotarod test in mice; format: in vivo; settings: 50 mg/kg per day orally for 2 months
[2] = system: Tr-J mice (CMT mouse model); assay: Sciatic nerve morphology by toluidine blue staining and g-ratio; format: in vivo; settings: 50 mg/kg, 2 months
Excerpt: In this example, the effect of sulfasalzine on the CMT was investigated using Trembler-J (Tr-J) mice. The Tr-J mouse has a missense mutation in the murine peripheral myelin protein-22 gene (Pmp22). Pmp22 mutations are believed to cause the neuropathies of Charcot-Marie-tooth disease in humans (Nature 356, 241-244 (19 Mar. 1992); doi:10.1038/356241a0). Two month old heterozygous Tr^J mice in the C57BL/6J background were obtained from Jackson Laboratories (Bar Harbor, Me.). Matings between Tr-J heterozygous females and males in the C57BL/6 genetic background were implemented to generate Tr-J heterozygous and wild-type controls.
Sulfasalazine was obtained from Sigma-Aldrich, St. Louis. Sulfasalazine (50 mg/kg daily) was administered orally to female mice (n=4-5 per group) via sulfasalazine-containing drinking water. Before sulfasalazine oral intervention, weight and daily water intake of the mice was measured to determine the dose of sulfasalazine. Each Tr-J and WT mice were administered sulfasalazine drinking water for 2 months (50 mg/kg daily).
After 2 months oral intervention, sciatic nerves were harvested from mice (WT+/−50 mg/kg sulfasalazine and Trembler J+/−50 mg/kg sulfasalazine). Nerves were fixed in 2% (w/v) glutaraldehyde in 0.1 M phosphate buffer (pH 7.4) for 4 h, followed by washing with 0.1 M phosphate buffer. […] Sample sections were evaluated using light microscopy.

[3] = system: Tr-J mice (CMT mouse model); assay: Twitch/tetanus isometric force of soleus muscle; format: in vivo; settings: 50 mg/kg, 2 months, vs placebo-treated mice, FIG. 11

CC(=O)NS(=O)(=O)c1ccc(N)cc1 [SCM, N-[(4-aminophenyl)sulfonyl]acetamide]
amount of the PMP22 protein compared to the control group (PMP22; vs DMSO control, FIGS. 4A/4B): decreased | effect on the promotion of remyelination (Zebrafish (Danio rerio)): confirmed

CC(=O)Nc1ccc(S(=O)(=O)c2ccc(N)cc2)cc1 [MADDS, mono N-acetyldapsone]
amount of the PMP22 protein compared to negative control and positive control (AA) (PMP22): significantly decreased | effect on the promotion of remyelination (Zebrafish (Danio rerio)): confirmed

Nc1ccc(S(=O)(=O)c2ccc(N)cc2)cc1 [DDS, 4,4′-diaminodiphenylsulfone]
amount of the PMP22 protein compared to negative control and positive control (AA) (PMP22): significantly decreased | amount of PMP22 protein (PMP22; as the concentration of DDS increases, 24 hours, n=4, FIGS. 1A/1B): decreased | expression of PM22 mRNA (PMP22 mRNA): did not show a significant difference | effect on the promotion of remyelination (Zebrafish (Danio rerio)): confirmed

O=C(O)c1cc(/N=N/c2ccc(S(=O)(=O)Nc3ccccn3)cc2)ccc1O [SSZ]
effect on the promotion of remyelination (Zebrafish (Danio rerio)): confirmed | time on rod ([1]; Tr-J mice, vs placebo-treated Tr-J mice): significantly increased | time on rod ([1]; WT mice, vs placebo-treated WT mice): decreased | g-ratio of sciatic nerve ([2]; Tr-J mice, vs vehicle treated Tr-J mice, FIG. 10C): significantly lower | number of myelinated axons in sciatic nerve ([2]; Tr-J mouse, vs vehicle-treated Tr-J mouse, FIG. 10A): significantly increased | tetanus contraction in Soleus tendon [3]: significantly increased | twitch contraction in Soleus tendon [3]: significantly increased
